Assay results published in patent US20050118381A1, “Diimonium salt mixtures, aminium salts mixtures and use thereof” (priority 2002, published 2005).
Blank lines part the entries; values can stand above or below the compound they belong to.

Tests used:
Assay type in all cases: physicochemical
[1] = Heat resistance stability test of near-infrared absorption filter coat film
Procedure: (§1) 1.2 parts of compound No. 1a (Sample 1X), No. 6a (Sample 2X) and No. 15a (Sample 3X) was each dissolved in 18.8 parts of MEK. To the solution was added 80 parts of a resin solution obtained by dissolving 25 parts of an acrylic resin (Dianal BR-80, available from Mitsubishi Rayon Co., Ltd.) in 75 parts of MEK to prepare a coating solution. The coating solution was applied to a polyester film in a thickness of 2 to 4 μm and dried at 80° C. to obtain the near-infrared absorption filter of the present invention.
(§2) The obtained coat film was subjected to a heat resistance stability test in a hot air dryer at 80° C. for a predetermined time and a moisture heat resistance stability test in a temperature and humidity controlled apparatus under conditions of 60° C. and 95% RH for a predetermined time. In addition, Samples 1X and 2X were subjected to a lightfastness test using a weatherometer (Ci4000, made by Atlas Electric Devices Co.) under conditions of light source output: 0.36 W/m^2, bath temperature: 24° C., black panel temperature: 40° C. and humidity: 30% RH for 50 hours. After the tests, the color of the film was measured by an ultraviolet/visible light spectrophotometer (UV-2100, made by Shimadzu Corporation) to calculate L*, a*, b* values and stability was evaluated from the variation of the b* value. The results of heat resistance test are shown in Table 9, the results of the moisture heat resistance test are shown in Table 10 and the results of the lightfastness test are shown in Table 11.
(§3) Coat films were prepared and evaluated in the same manner except that hexafluoroantimonate of tetrakis{p-di(n-butyl)aminophenyl}phenylenediimonium (Comparative Sample 1X) and hexafluoroantimonate of tetrakis{p-di(3-cyanopropyl)aminophenyl}phenylenediimonium (Comparative Sample 2X) were used instead of the above compounds.

[2] = Solubility test of diimonium salt compound
Procedure: Solubility of compounds No. 1a, No. 3a, No. 6a, No. 2a, No. 7a, No. 13a and No. 12a obtained in the above Examples in diacetone alcohol (DAA), methyl ethyl ketone (MEK) and cyclohexanone was measured. Measurement of solubility was conducted in the same manner except that hexafluoroantimonate of tetrakis{p-di(3-cyanopropyl)aminophenyl}phenylenediimonium (Comparative Sample 1) was used instead of the above compounds.

[3] = Lightfastness test of near-infrared absorption filter coat film; conditions: acrylic resin coat film
Procedure: as §1
The obtained coat film was subjected to a heat resistance stability test in a hot air dryer at 80° C. for a predetermined time and a moisture heat resistance stability test in a temperature and humidity controlled apparatus under conditions of 60° C. and 95% RH for a predetermined time. […] After the tests, the color of the film was measured by an ultraviolet/visible light spectrophotometer (UV-2100, made by Shimadzu Corporation) to calculate L*, a*, b* values and stability was evaluated from the variation of the b* value. […]
as §3

[4] = Lightfastness test of dye film containing aminium salt compound
Procedure: (§4) 0.3 part of cyanine dye (OM-57) was dissolved in 15 parts of tetrafluoropropanol and 0.04 part of compound No. 2b was added to the solution to prepare coating. The obtained coating was spin coated on a polycarbonate substrate to prepare a dye film (Sample 1Z). The obtained dye film was subjected to a lightfastness test using a weatherometer (Ci4000, made by Atlas Electric Devices Co.) under conditions of light source output: 0.36 W/m^2, bath temperature: 24° C., black panel temperature: 40° C. and humidity: 30% RH for 150 hours, by applying light from the substrate side. Then the residual ratio of the cyanine dye was measured by a spectrophotometer.
Further, dye films were prepared and evaluated in the same manner except that compounds of No. 3b (Sample 2Z), No. 4b (Sample 3Z) and No. 7b (Sample 4Z) and compound No. 12b (Sample 5Z) were used instead of compound No. 2b, and the results are shown in Table 13.
For comparison, a dye film was prepared and evaluated in the same manner except that hexafluoroantimonate of tetrakis{p-di(n-butyl)aminophenyl}phenylenediimonium (Comparative Sample 1Z) was used instead of compound No. 2b.

[5] = Lightfastness test of dye film containing diimonium salt compound
Procedure: as §4, with “2a” for “2b”, “1Y).” for “1Z).”, “50” for “150”
Further, dye films were prepared and evaluated in the same manner except that compounds of No. 3a (Sample 2Y), No. 7a (Sample 3Y) and No. 10a (Sample 4Y), compounds of No. 12a (Sample 5Y) and No. 13a (Sample 6Y) and compound No. 19a (Sample 7Y) were used instead of compound No. 2a, and the results are shown in Table 12.
For comparison, a dye film was prepared and evaluated in the same manner except that hexafluoroantimonate of tetrakis{p-di(n-butyl)aminophenyl}phenylenediimonium (Comparative Sample 1Y) was used instead of compound No. 2a.

[6] = Moisture heat resistance stability test of near-infrared absorption filter coat film; conditions: acrylic resin coat film
Procedure: as §1, §2, §3

[7] = Solubility test of aminium salt compound
Procedure: Solubility of Compounds No. 1b, No. 3b, No. 4b, No. 6b, No. 7b, No. 12b, No. 13b, No. 14b and No. 15b obtained in the above Examples in diacetone alcohol (DAA), methyl ethyl ketone (MEK), tetrahydrofuran (THF) and methylcellosolve was measured. Measurement of solubility was conducted in the same manner except that hexafluoroantimonate of tetrakis{p-di(3-cyanopropyl)aminophenyl}phenyleneaminium (Comparative Sample 2) and hexafluorophosphate thereof (Comparative Sample 3) were used instead of the above compounds.

[8] = dye film: 0.3 part OM-57 + 0.04 part compound on polycarbonate, before irradiation

- solubility in MEK (film preparation) ([1]; 1.2 parts in 18.8 parts of MEK, impossible to prepare a film): poor
- solubility cyclohexane ([2]; column head cyclohexane (text: cyclohexanone)): insoluble
- solubility DAA ([2]; in diacetone alcohol (DAA)): insoluble
- solubility MEK ([2]; in methyl ethyl ketone (MEK)): insoluble
Compound: hexafluoroantimonate of tetrakis{p-di(3-cyanopropyl)aminophenyl}phenylenediimonium [Comparative Sample 1]

- b* value initial stage ([1]; acrylic resin coat film on polyester film, before hot air dryer 80° C.): 2.85
- b* value after 4 days ([1]; acrylic resin coat film, hot air dryer 80° C., 4 days): 3.65
- b* value after 7 days ([1]; acrylic resin coat film, hot air dryer 80° C., 7 days): 3.93
- b* value after 14 days ([1]; acrylic resin coat film, hot air dryer 80° C., 14 days): 4.30
- b* value initial stage ([3]; before weatherometer): 2.85
- b* value after 50 hours ([3]; weatherometer 0.36 W/m^2, 24° C., 30% RH, 50 hours): 6.49
- residual ratio of cyanine dye initial stage [4, 8]: 100%
- residual ratio of cyanine dye after 150 hours ([4]; dye film: 0.3 part OM-57 + 0.04 part compound, weatherometer 0.36 W/m^2, 150 hours): 29%
- residual ratio of cyanine dye initial stage [5, 8]: 100%
- residual ratio of cyanine dye after 50 hours ([5]; dye film: 0.3 part OM-57 + 0.04 part compound, weatherometer 0.36 W/m^2, 50 hours): 69%
- b* value after 4 days ([6]; 60° C. and 95% RH, 4 days): 4.23
- b* value after 7 days ([6]; 60° C. and 95% RH, 7 days): 4.69
- b* value after 14 days ([6]; 60° C. and 95% RH, 14 days): 5.55
- b* value initial stage ([6]; before 60° C. and 95% RH): 2.85
Compound: CCCCN(CCCC)c1ccc([N+](=C2C=CC(=[N+](c3ccc(N(CCCC)CCCC)cc3)c3ccc(N(CCCC)CCCC)cc3)C=C2)c2ccc(N(CCCC)CCCC)cc2)cc1.[F][Sb-]([F])([F])([F])([F])[F].[F][Sb-]([F])([F])([F])([F])[F] [Comparative Sample 1X, hexafluoroantimonate of tetrakis{p-di(n-butyl)aminophenyl}phenylenediimonium]

- solubility DAA ([7]; in diacetone alcohol (DAA)): 1.2 wt %
- solubility MEK ([7]; in methyl ethyl ketone (MEK)): 1.7 wt %
- solubility THF ([7]; in tetrahydrofuran (THF)): insoluble
Compound: hexafluoroantimonate of tetrakis{p-di(3-cyanopropyl)aminophenyl}phenyleneaminium [Comparative Sample 2]
